Read-outs that look alike come from different tables or passages of the source.
Tests used:
human α4β7 = biological target: T1, human α4β7 (Homo sapiens, UniProt P13612+P26010); assay: α4β7-K562 Cell Adhesion Assay (α4β7 Mediated Adhesion/VCAM-1); format: cell-based
T1 construct: expressed in transfected cells
T1 sequence (P13612 34-1032): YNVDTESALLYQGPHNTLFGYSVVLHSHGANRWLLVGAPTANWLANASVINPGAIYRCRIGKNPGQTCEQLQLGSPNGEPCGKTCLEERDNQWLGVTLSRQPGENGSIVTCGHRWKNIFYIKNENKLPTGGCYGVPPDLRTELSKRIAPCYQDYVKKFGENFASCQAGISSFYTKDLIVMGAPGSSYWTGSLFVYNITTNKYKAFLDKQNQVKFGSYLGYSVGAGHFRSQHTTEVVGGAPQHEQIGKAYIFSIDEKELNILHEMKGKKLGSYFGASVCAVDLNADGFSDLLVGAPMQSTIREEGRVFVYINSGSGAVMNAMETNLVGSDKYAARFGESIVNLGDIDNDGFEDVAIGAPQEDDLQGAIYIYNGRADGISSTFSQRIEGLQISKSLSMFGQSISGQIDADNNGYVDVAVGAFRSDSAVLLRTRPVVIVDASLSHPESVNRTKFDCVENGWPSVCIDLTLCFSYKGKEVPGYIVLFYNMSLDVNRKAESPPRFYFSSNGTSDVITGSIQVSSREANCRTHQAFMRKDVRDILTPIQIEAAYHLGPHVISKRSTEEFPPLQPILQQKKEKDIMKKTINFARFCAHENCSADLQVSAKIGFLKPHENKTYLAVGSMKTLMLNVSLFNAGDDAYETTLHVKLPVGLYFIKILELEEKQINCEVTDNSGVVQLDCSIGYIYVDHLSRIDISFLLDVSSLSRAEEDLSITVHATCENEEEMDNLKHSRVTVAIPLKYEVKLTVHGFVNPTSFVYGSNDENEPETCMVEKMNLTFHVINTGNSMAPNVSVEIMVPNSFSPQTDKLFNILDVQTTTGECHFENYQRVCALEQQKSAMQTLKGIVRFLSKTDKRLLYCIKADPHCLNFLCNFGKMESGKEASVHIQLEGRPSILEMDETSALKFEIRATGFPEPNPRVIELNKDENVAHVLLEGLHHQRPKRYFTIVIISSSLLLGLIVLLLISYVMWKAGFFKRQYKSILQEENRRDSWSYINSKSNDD
T1 sequence (P26010 20-798): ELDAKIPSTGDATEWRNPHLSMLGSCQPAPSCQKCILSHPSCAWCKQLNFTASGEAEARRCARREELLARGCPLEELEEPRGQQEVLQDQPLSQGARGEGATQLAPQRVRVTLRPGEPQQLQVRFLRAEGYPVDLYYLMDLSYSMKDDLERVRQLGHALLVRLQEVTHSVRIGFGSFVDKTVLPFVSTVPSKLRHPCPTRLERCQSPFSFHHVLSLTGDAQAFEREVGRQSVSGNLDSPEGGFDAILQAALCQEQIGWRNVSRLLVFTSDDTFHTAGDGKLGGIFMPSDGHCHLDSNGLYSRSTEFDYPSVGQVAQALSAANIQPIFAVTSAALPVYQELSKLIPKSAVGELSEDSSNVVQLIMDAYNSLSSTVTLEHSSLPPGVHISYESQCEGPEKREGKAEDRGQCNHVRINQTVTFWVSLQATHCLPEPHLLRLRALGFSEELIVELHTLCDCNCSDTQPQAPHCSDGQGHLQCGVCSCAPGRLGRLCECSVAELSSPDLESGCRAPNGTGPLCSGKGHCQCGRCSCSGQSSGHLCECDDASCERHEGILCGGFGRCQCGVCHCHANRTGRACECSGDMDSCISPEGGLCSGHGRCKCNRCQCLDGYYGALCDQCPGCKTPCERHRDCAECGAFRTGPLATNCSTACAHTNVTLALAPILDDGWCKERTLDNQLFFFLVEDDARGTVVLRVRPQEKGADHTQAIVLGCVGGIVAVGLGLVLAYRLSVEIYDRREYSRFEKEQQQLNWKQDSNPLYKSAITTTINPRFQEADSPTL
Experimental: α4β7-K562 Cell Adhesion Assay (α4β7 Mediated Adhesion/VCAM-1)
(§1) Immulon 96 well plates (Dynex) were coated with 100 μL recombinant hVCAM-1 at 4.0 μg/mL in 0.05 M NaCO3 buffer pH 9.0 overnight at 4° C. (R&D Systems). Plates were washed 3 times in PBS with 1% BSA and blocked for 1 h @ room temperature in this buffer. PBS was removed and compounds to be tested (50 μL) were added at 2× concentration. A stable cell line of K562 cells expressing human α4β7, (50 μL at 2×10^6/mL) labeled with 5 μM Calcein AM (Molecular Probes) for 1 h at 37° C., were added to each well and allowed to adhere for 1 h at room temperature. Plates were washed 3× in PBS+1% BSA and cells were lysed for 15 minutes in 100 μL of 1 M Tris pH 8.0 with 1% SDS. The plate was read at 485 nm excitation and 530 nm emission.

α4β1 integrin receptor = biological target: T2, α4β1 integrin receptor (Homo sapiens, UniProt P05556+P13612); assay: Ramos Cell Adhesion Assay (α4β1 Mediated Adhesion/VCAM-1); format: cell-based
T2 construct: Ramos Cell Adhesion Assay (α4β1 Mediated Adhesion/VCAM-1); endogenous in cells; host or cells: Ramos cells
T2 sequence (P05556 21-798, one chain of several): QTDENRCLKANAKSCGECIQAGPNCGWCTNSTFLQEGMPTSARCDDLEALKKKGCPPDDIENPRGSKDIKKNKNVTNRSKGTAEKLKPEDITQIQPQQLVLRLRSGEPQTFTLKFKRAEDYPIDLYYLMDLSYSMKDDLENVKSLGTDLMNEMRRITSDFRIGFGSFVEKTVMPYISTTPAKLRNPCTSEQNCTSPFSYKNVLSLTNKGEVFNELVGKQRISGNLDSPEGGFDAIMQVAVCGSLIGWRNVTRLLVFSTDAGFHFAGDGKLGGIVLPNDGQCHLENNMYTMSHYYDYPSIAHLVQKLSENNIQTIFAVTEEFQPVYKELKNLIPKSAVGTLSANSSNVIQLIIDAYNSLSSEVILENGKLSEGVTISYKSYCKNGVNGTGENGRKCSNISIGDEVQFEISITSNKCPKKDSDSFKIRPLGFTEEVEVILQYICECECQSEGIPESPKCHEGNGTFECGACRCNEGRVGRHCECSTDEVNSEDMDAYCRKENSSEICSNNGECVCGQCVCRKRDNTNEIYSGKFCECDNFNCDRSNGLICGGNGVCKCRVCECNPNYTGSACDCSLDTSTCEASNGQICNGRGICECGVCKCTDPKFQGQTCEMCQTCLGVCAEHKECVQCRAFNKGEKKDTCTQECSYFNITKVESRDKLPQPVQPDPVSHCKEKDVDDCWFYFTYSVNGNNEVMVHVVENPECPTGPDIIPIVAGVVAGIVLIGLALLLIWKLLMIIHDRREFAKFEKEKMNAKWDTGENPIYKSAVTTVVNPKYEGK
Experimental: Ramos Cell Adhesion Assay (α4β1 Mediated Adhesion/VCAM-1)
as §1, with “Ramos cells,” for “A stable cell line of K562 cells expressing human α4β7,”

[1] = Table IV, read-out: Inhibition of Binding of K562 Cells to Immobilized VCAM-1 IC50
[2] = Table III, read-out: Inhibition of Binding of Ramos Cells to Immobilized VCAM-1 IC50
[3] = Table I, racemic mixtures and resolved (S,S) and (R,S) diastereomers, read-out: Antagonist IC50 Activity α4β7
[4] = Table I, racemic mixtures and resolved (S,S) and (R,S) diastereomers, read-out: Antagonist IC50 Activity α4β1

Structure (SMILES) | IC50 (α4β1 integrin receptor; [2]) [µM] | IC50 (human α4β7; [3]) [µM] | IC50 (α4β1 integrin receptor; [4]) [µM] | also measured
Cc1ccc(S(=O)(=O)N2C3CCC(CC3)C2C(=O)N[C@@H](Cc2ccc(NC(=O)c3c(Cl)cccc3Cl)cc2)C(=O)O)cc1 (mixture of isomers) [Cpd 1, 4-[(2,6-dichlorobenzoyl)amino]-N-[[2-[(4-methylphenyl)sulfonyl]-2-azabicyclo[2.2.2]oct-3-yl]carbonyl]-L-phenylalanine] | 0.045 |  |  | IC50 (human α4β7; [1]): 0.142 µM
O=C(Nc1ccc(C[C@H](NC(=O)C2C3CCC(CC3)N2S(=O)(=O)c2ccccc2)C(=O)O)cc1)c1c(Cl)cccc1Cl (mixture of isomers) [Cpd 6, 4-[(2,6-dichlorobenzoyl)amino]-N-[[2-(phenylsulfonyl)-2-azabicyclo[2.2.2]oct-3-yl]carbonyl]-L-phenylalanine] | 0.025 | 0.283 | 0.02 | 
COc1cccc(OC)c1-c1ccc(C[C@H](NC(=O)C2C3CCC(CC3)N2S(=O)(=O)c2ccc(C)cc2)C(=O)O)cc1 (mixture of isomers) [Cpd 18, 4-(2,6-dimethoxyphenyl)-N-[[2-[(4-methylphenyl)sulfonyl]-2-azabicyclo[2.2.2]oct-3-yl]carbonyl]-L-phenylalanine] | 0.124 | 0.21 | 0.124 | 
O=C(N[C@@H](Cc1ccc(N2C(=O)c3ccccc3C2=O)cc1)C(=O)O)C1C2CCC(CC2)N1S(=O)(=O)c1ccccc1 (mixture of isomers) [Cpd 47, 4-(1,3-dihydro-1,3-dioxo-2H-isoindol-2-yl)-N-[[2-(phenylsulfonyl)-2-azabicyclo[2.2.2]oct-3-yl]carbonyl]-L-phenylalanine] | 0.074 | 0.083 | 0.074 | 
CN(C)C(=O)Oc1ccc(C[C@H](NC(=O)C2C3CCC(CC3)N2S(=O)(=O)c2ccccc2)C(=O)O)cc1 (mixture of isomers) [Cpd 52, O-[(dimethylamino)carbonyl]-N-[[2-(phenylsulfonyl)-2-azabicyclo[2.2.2]oct-3-yl]carbonyl]-L-tyrosine] |  |  |  | IC50 (human α4β7): 0.998 µM; IC50 (α4β1 integrin receptor; Antagonist IC50 Activity α4β1, Table I, racemic mixtures and resolved (S,S) and (R,S) diastereomers): 0.124 µM; IC50 (α4β1 integrin receptor; Inhibition of Binding of Ramos Cells to Immobilized VCAM-1 IC50, Table III): 0.124 µM
CC(C)(C)OC(=O)N1CCC(C(=O)Nc2ccc(C[C@H](NC(=O)C3C4CCC(CC4)N3S(=O)(=O)c3ccccc3)C(=O)O)cc2)CC1 (mixture of isomers) [Cpd 53, 4-[[[1-[(1,1-dimethylethoxy)carbonyl]-4-piperidinyl]carbonyl]amino]-N-[[2-(phenylsulfonyl)-2-azabicyclo[2.2.2]oct-3-yl]carbonyl]-L-phenylalanine] | 0.067 | 0.871 | 0.179 | 
O=C(Nc1ccc(C[C@H](NC(=O)C2C3CCC(CC3)N2S(=O)(=O)c2cccs2)C(=O)O)cc1)c1c(Cl)cncc1Cl (mixture of isomers) [Cpd 71, 4-[[(3,5-dichloro-4-pyridinyl)carbonyl]amino]-N-[[2-(2-thienylsulfonyl)-2-azabicyclo[2.2.2]oct-3-yl]carbonyl]-L-phenylalanine] | 0.007 | 0.03 | 0.009 | 
Cc1ccc(S(=O)(=O)N2C3CCC(CC3)C2C(=O)N[C@@H](Cc2ccc(NC(=O)c3c(Cl)cc(Cl)cc3Cl)cc2)C(=O)O)cc1 (stereo partly drawn) [Cpd 2, 4-[(2,4,6-trichlorobenzoyl)amino]-N-[[2-[(4-methylphenyl)sulfonyl]-2-azabicyclo[2.2.2]oct-3-yl]carbonyl]-L-phenylalanine] | 0.051 |  |  | IC50 (human α4β7; [1]): 0.098 µM
COc1cccc(OC)c1C(=O)Nc1ccc(C[C@H](NC(=O)C2C3CCC(CC3)N2S(=O)(=O)c2ccc(C)cc2)C(=O)O)cc1 (stereo partly drawn) [Cpd 3, 4-[(2,6-dimethoxybenzoyl)amino]-N-[[2-[(4-methylphenyl)sulfonyl]-2-azabicyclo[2.2.2]oct-3-yl]carbonyl]-L-phenylalanine] | 0.05 |  |  | IC50 (human α4β7; [1]): 1.94 µM
O=C(Nc1ccc(C[C@H](NC(=O)[C@@H]2C3CCC(C3)N2S(=O)(=O)c2ccccc2)C(=O)O)cc1)c1c(F)cccc1F (stereo partly drawn) [Cpd 5a, 4-[(2,6-difluorobenzoyl)amino]-N-[[(3S)-2-(phenylsulfonyl)-2-azabicyclo[2.2.1]hept-3-yl]carbonyl]-L-phenylalanine] | 0.081 | 0.062 | 0.081 | 
O=C(Nc1ccc(C[C@H](NC(=O)[C@H]2C3CCC(C3)N2S(=O)(=O)c2ccccc2)C(=O)O)cc1)c1c(F)cccc1F (stereo partly drawn) [Cpd 5b, 4-[(2,6-difluorobenzoyl)amino]-N-[[(3R)-2-(phenylsulfonyl)-2-azabicyclo[2.2.1]hept-3-yl]carbonyl]-L-phenylalanine] | 0.394 | 3.38 | 0.394 | 
O=C(Nc1ccc(C[C@H](NC(=O)[C@@H]2C3CCC(CC3)N2S(=O)(=O)c2ccccc2)C(=O)O)cc1)c1c(Cl)cccc1Cl [Cpd 6a, 4-[(2,6-dichlorobenzoyl)amino]-N-[[(3S)-2-(phenylsulfonyl)-2-azabicyclo[2.2.2]oct-3-yl]carbonyl]-L-phenylalanine] | 0.021 | 0.217 | 0.023 | 
O=C(Nc1ccc(C[C@H](NC(=O)C2C3CCC(CC3)N2S(=O)(=O)c2ccccc2)C(=O)O)cc1)c1c(F)c(F)cc(F)c1F (stereo partly drawn) [Cpd 44, 4-[(2,3,5,6-tetrafluorobenzoyl)amino]-N-[[2-(phenylsulfonyl)-2-azabicyclo[2.2.2]oct-3-yl]carbonyl]-L-phenylalanine] | 0.309 |  |  | 
O=C(Nc1ccc(C[C@H](NC(=O)[C@@H]2C3CCC(CC3)N2S(=O)(=O)c2ccccc2)C(=O)O)cc1)c1c(Cl)cncc1Cl [Cpd 60, 4-[[(3,5-dichloro-4-pyridinyl)carbonyl]amino]-N-[[(3S)-2-(phenylsulfonyl)-2-azabicyclo[2.2.2]oct-3-yl]carbonyl]-L-phenylalanine] | 0.009 |  |  | 
CN(C)C(=O)Nc1ccc(C[C@H](NC(=O)C2C3CCC(CC3)N2S(=O)(=O)c2ccccc2)C(=O)O)cc1 (stereo partly drawn) [Cpd 61, 4-[[(dimethylamino)carbonyl]amino]-N-[[2-(phenylsulfonyl)-2-azabicyclo[2.2.2]oct-3-yl]carbonyl]-L-phenylalanine] | 0.056 |  |  | 
